Results on 8 molecules are retold here after patent US9346822B2, “Thienopyrimidine compounds and use thereof” (TAKEDA PHARMACEUTICAL COMPANY LIMITED, priority 2003, dated 2016).

Test system in the first data set: not given
Test: not given
Details: not given
For `CONC(=O)Nc1ccc(-c2sc3c(c2CN[C@H](C)c2ccccc2)c(=O)n(-c2ccccc2)c(=O)n3Cc2c(F)cccc2F)cc1` (hydrate or solvate) [Reference Example 28, N-(4-(5-(((1R)-1-phenylethylamino)methyl)-1-(2,6-difluorobenzyl)-1,2,3,4-tetrahydro-2,4-dioxo-3-phenylthieno[2,3-d]pyrimidin-6-yl)phenyl)-N′-methoxyurea], the melting point lay within 180 to 182 °C.

`CONC(=O)Nc1ccc(-c2sc3c(c2CN[C@@H](C)c2ccccc2)c(=O)n(-c2ccccc2)c(=O)n3Cc2c(F)cccc2F)cc1` [Reference Example 29, N-(4-(5-(((1S)-1-phenylethylamino)methyl)-1-(2,6-difluorobenzyl)-1,2,3,4-tetrahydro-2,4-dioxo-3-phenylthieno[2,3-d]pyrimidin-6-yl)phenyl)-N′-methoxyurea] returned a melting point of 182 to 185 °C.

Consider `COCC(c1ccccc1)N(C)Cc1c(-c2ccc(NC(=O)NOC)cc2)sc2c1c(=O)n(-c1ccccc1)c(=O)n2Cc1c(F)cccc1F` (centres unmarked) [Reference Example 32, N-(4-(1-(2,6-difluorobenzyl)-5-((2-methoxy-1-phenylethyl(methyl)amino)methyl)-1,2,3,4-tetrahydro-2,4-dioxo-3-phenylthieno[2,3-d]pyrimidin-6-yl)phenyl)-N′-methoxyurea], for which the melting point lay in the range of 169 to 172 °C.

In the case of `COCC(C)N(C)Cc1c(-c2ccc(NC(=O)NOC)cc2)sc2c1c(=O)n(-c1ccccc1)c(=O)n2Cc1c(F)cccc1F` (centres unmarked) [Reference Example 34, N-(4-(1-(2,6-difluorobenzyl)-5-(((2-methoxy-1-methylethyl)methylamino)methyl)-1,2,3,4-tetrahydro-2,4-dioxo-3-phenylthieno[2,3-d]pyrimidin-6-yl)phenyl)-N′-methoxyurea], the melting point is 154 to 155 °C.

As for `CONC(=O)Nc1ccc(-c2sc3c(c2CN(C)[C@H](C)c2ccccc2)c(=O)n(-c2ccccn2)c(=O)n3Cc2c(F)cccc2F)cc1` [Reference Example 38, N-(4-(5-((methyl((1R)-1-phenylethyl)amino)methyl)-1-(2,6-difluorobenzyl)-1,2,3,4-tetrahydro-2,4-dioxo-3-pyridin-2-ylthieno[2,3-d]pyrimidin-6-yl)phenyl)-N′-methoxyurea], the melting point fell in the range of 168 to 170 °C.

Take `CONC(=O)Nc1ccc(-c2sc3c(c2CN(C)[C@H](C)c2ccccc2)c(=O)n(-c2ccc(F)cn2)c(=O)n3Cc2c(F)cccc2F)cc1` [Reference Example 39, N-(4-(5-((methyl((1R)-1-phenylethyl)amino)methyl)-1-(2,6-difluorobenzyl)-1,2,3,4-tetrahydro-2,4-dioxo-3-(5-fluoropyridin-2-yl)thieno[2,3-d]pyrimidin-6-yl)phenyl)-N′-methoxyurea]: the melting point was in the range of 128 to 130 °C.

For the next data set, the target named is human GnRH receptor (Homo sapiens (Human), UniProt P30968). The data set is described as follows: 125I-leuprorelin binding inhibition, CHO cell membrane fraction containing human GnRH receptor. To be noted: human GnRH receptor expressed in CHO cell membrane, 25° C., 60 minutes, from Hill plot. The protocol: To a tube containing 10 μl of a 3×10^−4 M aqueous solution of leuprorelin and 10 μl of 0.01 mg/ml lactoperoxidase was added 10 μl (37 MBq) of a solution of Na^125I. After stirring, 10 μl of 0.001% H2O2 was added, and a reaction was carried out at room temperature for 20 minutes. By adding 700 μl of a 0.05% TFA solution, the reaction was stopped, followed by purification by reversed-phase HPLC. The HPLC conditions used are shown below. ^125I-leuprorelin was eluted at a retention time of 26 to 27 minutes.
Sequence of human GnRH receptor (P30968 whole entry): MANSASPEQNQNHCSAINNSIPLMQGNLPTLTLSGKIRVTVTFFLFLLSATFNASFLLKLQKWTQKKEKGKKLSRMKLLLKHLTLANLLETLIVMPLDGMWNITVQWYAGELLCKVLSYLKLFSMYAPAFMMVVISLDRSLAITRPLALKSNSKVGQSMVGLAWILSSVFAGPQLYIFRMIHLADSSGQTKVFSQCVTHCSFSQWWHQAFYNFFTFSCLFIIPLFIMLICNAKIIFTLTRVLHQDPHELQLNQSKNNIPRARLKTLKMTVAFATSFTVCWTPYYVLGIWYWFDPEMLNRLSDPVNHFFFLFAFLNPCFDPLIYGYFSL
Human GnRH receptor-expressing CHO cells (10^9 cells) were suspended in phosphate-buffered saline supplemented with 5 mM EDTA (PBS-EDTA) and centrifuged at 100×g for 5 minutes. […]
The monkey and human membrane fractions prepared in the above (2) and (3) were diluted with the assay buffer to yield a 200 µg/ml dilution, each of which was then dispensed at 188 μl per tube. […] To determine maximum binding quantity, a reaction mixture containing 2 μl of 60% DMSO and 10 μl of 38 nM ^125I-leuprorelin was prepared. […]
Where the membrane fraction of the CHO with monkey and human GnRH receptors expressed was used, the reaction was carried out at 25° C. for 60 minutes. […] After this filtration, the radioactivity of ^125I-leuprorelin remaining on the filter paper was measured with a γ-counter. […]
`COCCN(C)Cc1c(-c2ccc(NC(=O)NOC)cc2)sc2c1c(=O)n(-c1ccccn1)c(=O)n2Cc1c(F)cccc1F` [Ex. Compd. No. 40, N-(4-(1-(2,6-difluorobenzyl)-5-(((2-methoxyethyl)(methyl)amino)methyl)-2,4-dioxo-3-(2-pyridinyl)-1,2,3,4-tetrahydrothieno[2,3-d]pyrimidin-6-yl)phenyl)-N′-methoxyurea]: the IC50 came to 0.0002 µM.

In turn, `CCOCCN(C)Cc1c(-c2ccc(NC(=O)NOC)cc2)sc2c1c(=O)n(-c1ccccn1)c(=O)n2Cc1c(F)cccc1F` [Ex. Compd. No. 41, N-(4-(1-(2,6-difluorobenzyl)-5-(((2-ethoxyethyl)(methyl)amino)methyl)-2,4-dioxo-3-(2-pyridinyl)-1,2,3,4-tetrahydrothieno[2,3-d]pyrimidin-6-yl)phenyl)-N′-methoxyurea] returned an IC50 of 0.0001 µM.

One may read the melting point as the temperature of the solid-liquid transition. The IC50 is the concentration needed to halve the response being measured.
